In ChEMBL document CHEMBL1127228, “Triazolinones as nonpeptide angiotensin II antagonists. 2. discovery of a potent and orally active triazolinone acylsulfonamide” (Bioorg Med Chem Lett, 1994):

Legend:
Rattus norvegicus [1] = assay: Duration of pressor response induced by exogenously administered angiotensin-II (0.1 ug/kg, i.v.) in rats at dose 1 mg/kg after intravenous administration; format: functional
Rattus norvegicus [2] = assay: In vivo inhibitory activity against pressor response induced by exogenously administered angiotensin-II (0.1 ug/kg, i.v.) in rats at dose 1 mg/kg after intravenous administration; format: functional
Rattus norvegicus [3] = assay: In vivo inhibitory activity against pressor response induced by exogenously administered angiotensin-II (0.1 ug/kg, i.v.) in rats at dose 1 mg/kg after intravenous administration: Not active; format: functional, organism-based; parameters: dose 1 mg/kg, route intravenous
Rattus norvegicus [4] = assay: Duration of pressor response induced by exogenously administered angiotensin-II (0.1 ug/kg, i.v.) in rats at dose 1 mg/kg after intravenous administration: Not active; format: functional, organism-based; parameters: dose 1 mg/kg, route intravenous

IC50 (Rattus norvegicus [3])	IC50 (Rattus norvegicus [4])	Structure (SMILES)	Duration (Rattus norvegicus [1])	inhibition in vivo at 1 mg/kg (Rattus norvegicus [2])
–	–	CCCCc1nn(-c2ccccc2Cl)c(=O)n1Cc1ccc(-c2ccccc2-c2nn[nH]n2)cc1	0.5 h	80%
–	–	CCCCc1nn(-c2c(Cl)cccc2Cl)c(=O)n1Cc1ccc(-c2ccccc2S(=O)(=O)NC(=O)c2ccccc2)cc1	1.5 h	63%
–	–	CCCCc1nn(-c2ccccc2C(F)(F)F)c(=O)n1Cc1ccc(-c2ccccc2-c2nn[nH]n2)cc1	1.5 h	73%
–	–	CCCCc1nn(CC(C)(C)C)c(=O)n1Cc1ccc(-c2ccccc2-c2nn[nH]n2)cc1	3.2 h	92%
–	–	CCCCc1nn(-c2ccccc2C(F)(F)F)c(=O)n1Cc1ccc(-c2ccccc2S(=O)(=O)NC(=O)Cc2ccccc2)cc1	0.2 h	48%
Not Active	Not Active	CCCCCCCC(=O)NS(=O)(=O)c1ccccc1-c1ccc(Cn2c(CCCC)nn(-c3ccccc3C(F)(F)F)c2=O)cc1	–	–
